Assay results from ChEMBL document CHEMBL1800009, “Pyrazolopyridazine alpha-2-delta-1 ligands for the treatment of neuropathic pain” (Bioorg Med Chem Lett, 2010).

What was measured:
in vivo [1] = conditions: rat, whole blood
in vivo [2] = conditions: rat, brain/blood, 30 mg/kg

SMILES | clearance (in vivo [1]) [mL/min/kg] | Kp (in vivo [2])
Cc1nnc(N2CCCC2)c2nn(-c3ccc(OCC(F)(F)F)cc3)c(C)c12 | 49 | 
COC1CN(c2nnc(C)c3c(C)n(-c4ccc(Cl)cc4OC(F)(F)F)nc23)C1 | 52 | 0.94
